According to patent US20230146675A1, “PYRIMIDO[5,4-d]PYRIMIDINE DERIVATIVES AS ENT INHIBITORS FOR THE TREATMENT OF CANCERS, AND COMBINATION THEREOF WITH ADENOSINE RECEPTOR ANTAGONISTS” (ITEOS BELGIUM SA, priority 2020, published 2023):
Like-named read-outs stand apart in the source and are kept apart here.

Columns and labels:
Format in all cases: biochemical
[1] = target: T1, Human phosphodiesterase-10A2 (Homo sapiens, UniProt Q9Y233); experiment: PDE10A2 (h) assay
T1 construct: host or cells: Sf9 cells
T1 sequence (Q9Y233 267-1055): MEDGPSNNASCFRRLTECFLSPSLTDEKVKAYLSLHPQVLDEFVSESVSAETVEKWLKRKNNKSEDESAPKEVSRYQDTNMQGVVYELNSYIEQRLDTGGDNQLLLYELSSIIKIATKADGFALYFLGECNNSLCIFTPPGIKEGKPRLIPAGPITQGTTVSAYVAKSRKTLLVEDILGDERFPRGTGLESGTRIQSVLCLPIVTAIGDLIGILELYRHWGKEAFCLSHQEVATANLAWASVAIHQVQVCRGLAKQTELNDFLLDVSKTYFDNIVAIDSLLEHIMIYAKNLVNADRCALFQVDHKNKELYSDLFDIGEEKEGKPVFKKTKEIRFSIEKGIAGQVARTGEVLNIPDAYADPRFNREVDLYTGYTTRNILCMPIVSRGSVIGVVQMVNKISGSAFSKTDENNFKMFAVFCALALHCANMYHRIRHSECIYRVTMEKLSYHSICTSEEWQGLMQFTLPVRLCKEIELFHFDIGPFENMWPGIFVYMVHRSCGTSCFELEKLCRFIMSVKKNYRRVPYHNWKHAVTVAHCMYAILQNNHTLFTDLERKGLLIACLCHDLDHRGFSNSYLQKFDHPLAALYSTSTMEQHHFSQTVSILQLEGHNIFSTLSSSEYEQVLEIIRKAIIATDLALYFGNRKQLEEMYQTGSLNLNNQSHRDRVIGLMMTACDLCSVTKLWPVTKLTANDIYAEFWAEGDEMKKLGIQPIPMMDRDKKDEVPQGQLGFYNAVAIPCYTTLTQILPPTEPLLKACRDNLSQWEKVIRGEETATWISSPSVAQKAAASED
Method: (§1) The test compound (compound 72), reference compound or water (control) were added to a buffer containing 40 mM Tris/HCl (pH 7.4) and 8 mM MgCl2, 180 nM cAMP and 0.1 μCi [3H]cAMP. Thereafter, the reaction was initiated by addition of the enzyme (about 0.8 U) and the mixture was incubated for 20 min at 22° C. For basal control measurements, the enzyme was omitted from the reaction mixture. Following incubation SPA beads were added. After 30 min at 22° C. under shaking, the amount of [3H]5′AMP was quantified with a scintillation counter (MicroBeta, Perkin Elmer). The results were expressed as a percent inhibition of the control enzyme activity. The standard inhibitory reference compound was trequinsin, which was tested in each experiment at several concentrations to obtain an inhibition curve from which its IC50 value was calculated. • Human phosphodiesterase-10A2 quantified by measuring the formation of 5′AMP from cAMP using a human recombinant enzyme expressed in Sf9 cells.
(§2) The test compound (compound 72), reference compound or water (control) were added to a buffer containing 40 mM Tris/HCl (pH 7.4) and 8 mM MgCl2, 180 nM cAMP and 0.1 μCi [3H]cAMP. […] After 30 min at 22° C. under shaking, the amount of [3H]5′AMP was quantified with a scintillation counter (MicroBeta, Perkin Elmer). The results were expressed as a percent inhibition of the control enzyme activity. […]

[2] = target: T2, Human phosphodiesterase-5 (Homo sapiens, UniProt O76074); experiment: PDE5 (h) (non-selective) assay
T2 construct: using an enzyme isolated from human platelets at Eurofins-Cerep; tissue Eurofins-Cerep; host or cells: human platelets
Method: The test compound (compound 72), reference compound or water (control) were added to a buffer containing 40 mM Tris/HCl (pH 7.4), 8 mM MgCl2 0.21% BSA, 0.5 μg/ml calmoduline and 0.5 mM CaCl2), 1.125 μM cGMP and 0.027 μCi [3H]cGMP. Thereafter, the reaction was initiated by addition of the enzyme (about 0.2 U) and the mixture was incubated for 20 min at 22° C. For basal control measurements, the enzyme was omitted from the reaction mixture. Following incubation SPA beads were added. After 30 min at 22° C. under shaking, the amount of [3H]5′GMP was quantified with a scintillation counter (MicroBeta, Perkin Elmer). The results were expressed as a percent inhibition of the control enzyme activity. The standard inhibitory reference compound was Nitrendipine, which was tested in each experiment at several concentrations to obtain an inhibition curve from which its IC50 value was calculated. • Human phosphodiesterase-5 quantified by measuring the formation of 5′GMP from cGMP using an enzyme isolated from human platelets at Eurofins-Cerep.
The test compound (compound 72), reference compound or water (control) were added to a buffer containing 40 mM Tris/HCl (pH 7.8), 3 mM MgCl2, 1.4 mM DTT, 0.21% BSA, 200 mM NH4Cl, 1 μM cGMP and 0.1 μCi [3H]cGMP. […] After 20 min at 22° C. under shaking, the amount of [3H]5′GMP was quantified with a scintillation counter (MicroBeta, Perkin Elmer). […]

[3] = target: T3, Human phosphodiesterase-2A1 (Homo sapiens, UniProt O00408); experiment: PDE2A1 (h) assay
T3 construct: host or cells: Sf9 cells
T3 sequence (O00408 1-920 isoform O00408-2): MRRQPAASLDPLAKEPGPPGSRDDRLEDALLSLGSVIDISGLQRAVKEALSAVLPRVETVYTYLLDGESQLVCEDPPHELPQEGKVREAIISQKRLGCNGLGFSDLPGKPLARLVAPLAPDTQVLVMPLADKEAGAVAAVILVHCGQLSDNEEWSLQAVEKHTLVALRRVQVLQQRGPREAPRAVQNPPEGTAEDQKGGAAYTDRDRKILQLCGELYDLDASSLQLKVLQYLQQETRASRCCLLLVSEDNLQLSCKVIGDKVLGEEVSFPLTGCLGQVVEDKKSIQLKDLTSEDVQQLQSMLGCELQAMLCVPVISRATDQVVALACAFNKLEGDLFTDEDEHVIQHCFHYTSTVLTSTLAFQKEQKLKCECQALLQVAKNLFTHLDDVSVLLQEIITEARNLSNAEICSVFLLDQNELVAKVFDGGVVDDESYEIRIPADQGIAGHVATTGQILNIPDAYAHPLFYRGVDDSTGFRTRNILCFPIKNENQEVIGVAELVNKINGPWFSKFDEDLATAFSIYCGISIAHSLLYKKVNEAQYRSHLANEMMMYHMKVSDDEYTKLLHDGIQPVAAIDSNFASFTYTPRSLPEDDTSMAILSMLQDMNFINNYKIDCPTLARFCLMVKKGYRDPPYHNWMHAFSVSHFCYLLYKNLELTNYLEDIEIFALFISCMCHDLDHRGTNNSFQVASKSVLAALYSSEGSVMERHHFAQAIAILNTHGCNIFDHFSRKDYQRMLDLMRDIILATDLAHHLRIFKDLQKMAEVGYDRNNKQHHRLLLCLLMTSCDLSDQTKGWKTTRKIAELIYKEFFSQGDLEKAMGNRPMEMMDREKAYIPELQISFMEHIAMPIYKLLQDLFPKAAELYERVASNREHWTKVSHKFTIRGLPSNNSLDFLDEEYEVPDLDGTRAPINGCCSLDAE
Method: The test compound (compound 72), reference compound or water (control) were added to a buffer containing 40 mM Tris/HCl (pH 7.8), 3 mM MgCl2, 1.4 mM DTT, 0.21% BSA, 200 mM NH4Cl, 1 μM cGMP and 0.1 μCi [3H]cGMP. Thereafter, the reaction was initiated by addition of the enzyme (final amount depending on the efficiency of the isolation) and the mixture was incubated for 60 min at 22° C. For basal control measurements, the enzyme was omitted from the reaction mixture. Following incubation SPA beads were added. After 20 min at 22° C. under shaking, the amount of [3H]5′GMP was quantified with a scintillation counter (MicroBeta, Perkin Elmer). The results were expressed as a percent inhibition of the control enzyme activity.
The test compound (compound 72), reference compound or water (control) were added to a buffer containing 40 mM Tris/HCl (pH 7.4), 8 mM MgCl2 and 1.7 mM EGTA/NaOH, 1.8 μM cAMP and 1 μCi [3H]cAMP. Thereafter, the reaction was initiated by addition of the enzyme (about 2 ng) and the mixture was incubated for 15 min at 22° C. For basal control measurements, the enzyme was omitted from the reaction mixture. Following incubation SPA beads were added. After 30 min at 22° C. under shaking, the amount of [3H]5′AMP was quantified with a scintillation counter (MicroBeta, Perkin Elmer). The results were expressed as a percent inhibition of the control enzyme activity. […]

[4] = target: T4, Human phosphodiesterase-8A1 (Homo sapiens, UniProt O60658); experiment: PDE8A1 (h) assay
T4 construct: host or cells: Sf9 cells
T4 sequence (O60658 whole entry): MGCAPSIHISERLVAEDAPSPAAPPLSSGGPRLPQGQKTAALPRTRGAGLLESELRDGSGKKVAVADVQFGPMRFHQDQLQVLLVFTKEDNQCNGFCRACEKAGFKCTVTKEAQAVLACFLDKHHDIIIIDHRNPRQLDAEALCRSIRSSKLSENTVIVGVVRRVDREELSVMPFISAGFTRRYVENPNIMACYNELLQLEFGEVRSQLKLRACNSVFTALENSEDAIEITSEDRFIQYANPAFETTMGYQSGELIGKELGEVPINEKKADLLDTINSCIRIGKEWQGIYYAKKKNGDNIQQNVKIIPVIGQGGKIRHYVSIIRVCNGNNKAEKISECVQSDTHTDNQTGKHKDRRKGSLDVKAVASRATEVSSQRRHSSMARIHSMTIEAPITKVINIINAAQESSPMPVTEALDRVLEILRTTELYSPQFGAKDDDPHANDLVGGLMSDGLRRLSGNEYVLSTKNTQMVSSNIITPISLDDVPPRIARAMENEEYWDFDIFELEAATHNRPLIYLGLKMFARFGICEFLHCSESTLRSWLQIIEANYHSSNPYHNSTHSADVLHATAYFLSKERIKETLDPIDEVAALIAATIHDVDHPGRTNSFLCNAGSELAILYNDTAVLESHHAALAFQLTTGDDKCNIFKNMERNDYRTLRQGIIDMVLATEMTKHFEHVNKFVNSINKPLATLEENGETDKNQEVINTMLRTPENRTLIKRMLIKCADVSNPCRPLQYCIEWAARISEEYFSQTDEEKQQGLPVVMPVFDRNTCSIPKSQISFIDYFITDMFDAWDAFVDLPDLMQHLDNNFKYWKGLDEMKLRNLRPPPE
Method: as §1, with “63” for “180”, “0.035” for “0.1”, “0.6” for “0.8”, “BRL50481,” for “trequinsin,”, “phosphodiesterase-8A1” for “phosphodiesterase-10A2”, “cells” for “cells.”
as §2

IC50 [1]: 1 to 10 µM
IC50 ([2]; read-out: PDE5 (h) (non-selective) IC50): 1 to 10 µM
IC50 ([2]; read-out: PDE5 IC50): 1.08 µM
IC50 [3]: > 10 µM
IC50 [4]: > 10 µM
SMILES: COCCN(CCOC)c1nc(N2CCN(C)C(=O)C2)c2nc(N(CCOC)CCOC)nc(N3CCC(OC)CC3)c2n1 [Compound 72, 4-(2,6-bis(bis(2-methoxyethyl)amino)-8-(4-methoxypiperidin-1-yl)pyrimido[5,4-d]pyrimidin-4-yl)-1-methylpiperazin-2-one]
